The subject of data set [1] is Aphis gossypii (cotton aphid). The data set can be described thus: Insecticidal activity on cotton aphid, solutions applied to cabbage leaf surface then infested. It counts as in vivo. Conditions: for mortality at 50 ppm / mortality at 200 ppm: Aphis gossypii; for mortality at 200 ppm: Rate 200 PPM solution. As to the method: (§1) Different substituted 1,2,4-triazole compounds of the present disclosure were tested for insecticidal activity on Aphis gossypii (cotton aphid) and Myzus persicae (green peach aphid). The different substituted 1,2,4-triazole compounds were formulated as either 200 PPM solutions or 50 PPM solutions. The 200 PPM solutions or 50 PPM solutions of the different substituted 1,2,4-triazole compounds were applied to a cabbage leaf surface and the resulting samples were subjected to an infestation of Aphis gossypii and Myzus persicae.
(§2) In Table 1, “ND” means mortality data was not determined at this rate.

Data set [2] has as its system Myzus persicae (green peach aphid). The data set is described as follows: Insecticidal activity on green peach aphid, solutions applied to cabbage leaf surface then infested. It counts as in vivo. The following applies: for mortality at 50 ppm: Rate 50 PPM solution; for mortality at 200 ppm: Rate 200 PPM solution. As to the method: as §1, §2

The text below walks through data of patent publication US20130317068A1, “SUBSTITUTED 1,2,4-TRIAZOLE COMPOUNDS AS A SEED TREATMENT TO CONTROL PESTS” (Dow Agrosciences LLC, priority 2012, published 2013).

Molecules are shown by their SMILES.

Turning to `Cn1nc(-c2c(F)cccc2F)nc1C1(C)CC1(Cl)Cl` (stereo not drawn) [drawing 12], the “Average % mortality, Cotton Aphid” value in data set [1] (Rate 50 PPM solution) amounted to 95%.
In general, mortality refers to the share of the test organisms that died. A lower mortality goes with a weak lethal effect. Consider `Cc1c(-c2nc(-c3c(F)cccc3Cl)nn2C)csc1-c1ccc(OC(F)(F)C(F)Cl)cc1` (stereo not drawn), for which the mortality at 50 ppm in data set [1] (Rate 50 PPM solution) was 84%; in data set [2], 73%.
The matching figures for `Cc1cc(-c2ccc(OC(F)(F)C(F)Cl)cc2)sc1-c1nc(-c2c(F)cccc2Cl)nn1C` (stereo not drawn): 66% and 75%.
Consider `Cn1nc(-c2c(F)cccc2F)nc1C1(C)CC1(Cl)Cl` (stereo not drawn) [drawing 11], for which the mortality at 50 ppm in data set [1] (Rate 50 PPM solution) was determined as 90%. In data set [2], the mortality at 50 ppm stood at 13% and the mortality at 200 ppm came out at 81%.
On to `Cn1nc(-c2c(F)cccc2Cl)nc1-c1sc(Cl)c(Cl)c1Cl`, for which the mortality at 50 ppm in data set [1] (Rate 50 PPM solution) came to 32%; in data set [2] it was 81%. Besides, the mortality at 200 ppm in data set [1] is 99%.
As to `Cn1nc(-c2c(Cl)cncc2Cl)nc1-c1ccc(C(F)(F)F)cc1`, the results for the mortality at 50 ppm in data set [1] (Rate 50 PPM solution) and in data set [2] were 88% and 79%, respectively. This compound came in with a mortality at 200 ppm in data set [2] of 87%.
Consider `Cc1c(Br)csc1-c1nc(-c2c(F)cccc2Cl)nn1C`, for which the mortality at 50 ppm in data set [1] (Rate 50 PPM solution) is 96%; in data set [2], 87%. The figures for the mortality at 200 ppm in data set [1] and in data set [2] were 100% and 63%, respectively.
